Data taken from publication PMC6270921, “Study on the Cytotoxic Activity of Drimane Sesquiterpenes and Nordrimane Compounds against Cancer Cell Lines” (Molecules, 2014).

Columns and labels:
[1] = Cell viability, sulforhodamine B assay; type: cell-based; settings: human, CCD 841 CoN colon epithelial cells (non-tumoral cell line), 72 h exposure, dilutions 12.5 to 100 μM, non-tumor cell line, read-out: Cytotoxicity IC50, CoN
Procedure: (§1) The cytotoxicity of compounds 1–12 was evaluated in vitro against different cancer cell lines: MCF-7 breast cancer, DU-145 and PC-3 human prostate cancer, and one non-tumor cell line, human colon epithelial cells CCD 841 CoN (CoN). […] Four serial dilutions (from 12.5 to 100 μM) for each sample were evaluated in triplicate.
(§2) The experimental cell cultures were obtained from the American Type Culture Collection (Rockville, MD, USA). MCF-7 cells (breast cancer cell line), PC-3 and DU-145 (prostate cancer cell lines), and human colon epithelial cells CCD 841 CoN (non-tumoral cell line) were grown in Dulbecco’s modified Eagle’s medium (DMEM) containing 10% FCS, 100 U/mL penicillin, 100 μg/mL streptomycin, and 1 mM glutamine. Cells were seeded into 96 well microtiter plates in 100 μL at a plating density of 5 × 10^3 cells/well. After 24 h incubation at 37 °C under a humidified 5% CO2 atmosphere to allow cell attachment, the cells were treated with different concentrations of drugs and incubated for 72 h under the same conditions. Stock solutions of compounds were prepared in ethanol and the final concentration of this solvent was kept constant at 1%. Control cultures received 1% ethanol alone.
(§3) The sulforhodamine B assay was used according to the method of Skehan et al.. Briefly, the cells were set up at 3 × 10^3 cells per well of a 96 200 μL well, flat-bottomed, microplate. Cells were incubated at 37 °C in a humidified 5% CO2/95% air mixture and treated with the compounds at different concentrations for 72 h. At the end of drug exposure, cells were fixed with 50% trichloroacetic acid at 4 °C. After washing with water, cells were stained with 0.1% sulforhodamine B (Sigma-Aldrich, St. Louis, MO, USA), dissolved in 1% acetic acid (50 μL/well) for 30 min, and subsequently washed with 1% acetic acid to remove unbound stain. Protein-bound stain was solubilized with 100 μL of 10 mM unbuffered Tris base, and the cell density was determined using a […] plate reader (wavelength 540 nm). Values shown are the mean ± SD of three independent experiments in triplicate. The software used to calculate the IC50 values was GraphPad (GraphPad Software, San Diego, CA, USA).

[2] = system: DU-145 prostate cancer cell line; experiment: Cell viability, sulforhodamine B assay; type: cell-based; settings: Homo sapiens, 72 h exposure, dilutions 12.5 to 100 μM, read-out: Cytotoxicity IC50, DU145
Procedure: as §1, §2, §3

[3] = system: MCF-7 breast cancer cell line; experiment: Cell viability, sulforhodamine B assay; type: cell-based; settings: Homo sapiens, MCF7, 72 h exposure, dilutions 12.5 to 100 μM, read-out: Cytotoxicity IC50, MCF-7
Procedure: as §1, §2, §3

[4] = system: PC-3 prostate cancer cell line; experiment: Cell viability, sulforhodamine B assay; type: cell-based; settings: Homo sapiens, 72 h exposure, dilutions 12.5 to 100 μM, read-out: Cytotoxicity IC50, PC-3
Procedure: as §1, §2, §3

[5] = system: panel of cancer cell lines; experiment: Cytotoxicity against a panel of cancer cell lines (summary); type: cell-based; settings: Homo sapiens; summary statement of the conclusions
Procedure: as §1, §3

MCF-7 cells = experiment: Mitochondrial membrane permeability, rhodamine 123 flow cytometry; type: cell-based, human; settings: MCF-7, positive control FCCP 10 μM
Text: (§4) Mitochondria play a crucial role in the apoptotic cascade by serving as a convergent center of apoptotic signals originating from both the extrinsic and intrinsic pathways. Changes induced in the mitochondrial membrane potential (MMP) have been reported previously to represent a determinant in the execution of cell death. As polygodial has been described as an inhibitor of mitochondrial ATPase and also as nonionic surfactant. This effect may be determinant in cell death, we has analyzed the effect of compounds 1, 8 and 12 on the mitochondrial membrane potential using flow cytometry with rhodamine 123 stain [24]. […] Similar differences were observed after treatments with compounds 1 and 8 at 100 μM.
(§5) Rhodamine 123, a cationic, voltage-sensitive probe that reversibly accumulates in mitochondria, was used to detect changes in transmembrane mitochondrial membrane potentials. Cells were labelled with 1 μM rhodamine 123 at 37 °C in cell medium for 60 min before terminating the experiment. Cells were detached from the plate, after washing with ice cold PBS, and the samples were analyzed by flow cytometry. Data are expressed in percentage of cells with rhodamine 123 [24].

PC-3 cells = experiment: as above; type: cell-based, human; settings: PC-3, positive control FCCP 10 μM
Text: as §4, §5

CoN cells = experiment: as above; type: cell-based, human; settings: positive control FCCP 10 μM
Text: as §4, §5

[6] = system: Salmonella strains TA 98, TA 2637, and TA 100; settings: at highest non-toxic concentration; cited from earlier work

CC1(C)CCC[C@]2(C)[C@@H](CO)C(CO)=CC[C@@H]12 [Compound 7, 9β-drimendiol]
IC50 at 72 h [1]: > 200 µM
IC50 [2]: > 200 µM
IC50 [3]: > 200 µM
IC50 [4]: > 200 µM

CC1(C)CCC[C@]2(C)[C@H]3O[C@@]3(C)C(=O)C[C@@H]12 [Compound 9]
IC50 at 72 h [1]: > 200 µM
IC50 [2]: 93.5 ± 6.7 µM
IC50 [3]: > 200 µM
IC50 [4]: 97.5 ± 10.4 µM
IC50 [5]: < 200 µM

CC(=O)O[C@H]1C[C@H]2C(C)(C)CCC[C@]2(C)C=C1C [Compound 10]
IC50 at 72 h [1]: > 200 µM
IC50 [2]: > 200 µM
IC50 [3]: > 200 µM
IC50 [4]: > 200 µM

N#CC(C#N)=NNc1ccc(OC(F)(F)F)cc1 [FCCP, reference compound]
percentage of rhodamine 123 stained cells (MCF-7 cells): 7.4 ± 0.4 %
percentage of rhodamine 123 stained cells (PC-3 cells): 5.2 ± 0.4 %
percentage of rhodamine 123 stained cells (CoN cells): 6.8 ± 1.3 %

CC1(C)CCC[C@]2(C)[C@H](C=O)C(C=O)=CC[C@@H]12 [Compound 2, isopolygodial]
mutagenic activity [6]: no mutagenic activity
IC50 at 72 h [1]: > 200 µM
IC50 [2]: > 200 µM
IC50 [3]: > 200 µM
IC50 [4]: > 200 µM

CC1=CC[C@H]2C(C)(C)CCC[C@]2(C)[C@H]1CO [Compound 3, drimenol]
IC50 at 72 h [1]: > 200 µM
IC50 [2]: > 200 µM
IC50 [3]: > 200 µM
IC50 [4]: > 200 µM
